The values that follow come from PubChem BioAssay (NCI).

Values joined by “and” are separate entries in the source; they are usually repeats but may differ in a detail not shown here. Identical values can stand only once.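 Grown in 96-well plates, cells were treated for 48 hours with each compound at five concentrations. Insufficient inhibition: endpoint recorded as highest concentration tested. The concentration for 50% growth inhibition is given as GI50. At the TGI there is no net growth.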

Among the test systems are COLO 205 colon; EKVX NSCLC; HOP-62 NSCLC; IGROV1 ovarian; KM12 colon; NCI-H226 lung; OVCAR-4 ovarian; SNB-19 CNS; UACC-257 melanoma; UACC-62 melanoma.
Test in all cases: growth of human tumour cells (NCI), 48 h

Turning to `CS(=O)(=O)CCNCc1ccc(-c2ccc3ncnc(Nc4ccc(OCc5ccccc5)cc4)c3c2)o1`, the GI50 in the assay with COLO 205 colon is 5 µM; with EKVX NSCLC, 0.371 µM; in the assay on HOP-62 NSCLC it was 9.66 µM; in the assay with IGROV1 ovarian it was 3.45 µM; in the assay with KM12 colon it was 8.85 µM; with NCI-H226 lung, 13.2 µM. Further, the GI50 with OVCAR-4 ovarian is 11.1 µM; in the assay with SNB-19 CNS, 11.1 µM; in the assay on UACC-257 melanoma it was 4.38 µM; with UACC-62 melanoma it was 4.68 µM. Further, the TGI in the assay on COLO 205 colon is 11.4 µM; in the assay on EKVX NSCLC it was 24.7 µM; in the assay on HOP-62 NSCLC, above 25 µM; in the assay on IGROV1 ovarian, above 18.8 µM; in the assay with KM12 colon, above 25 µM; in the assay with NCI-H226 lung, above 25 µM. The TGI is above 25 µM in the assay on OVCAR-4 ovarian, above 25 µM with SNB-19 CNS, 8.56 µM in the assay with UACC-257 melanoma and 8.98 µM in the assay with UACC-62 melanoma.

Turning to `N#CC(C#N)=C1Nc2ccccc2S1`, the GI50 in the assay on COLO 205 colon is 29.5 µM; in the assay with EKVX NSCLC it was 34.7 µM; in the assay with HOP-62 NSCLC, 40.3 µM; in the assay with IGROV1 ovarian it was 35.9 µM; with KM12 colon, 34.8 µM; in the assay on NCI-H226 lung, 27.3 µM. The GI50 in the assay with OVCAR-4 ovarian was 87 µM; in the assay with SNB-19 CNS, 38.2 µM; in the assay on UACC-257 melanoma it was 21.4 µM; with UACC-62 melanoma, 37.2 µM. The TGI with COLO 205 colon is above 100 µM; with EKVX NSCLC, above 100 µM; with HOP-62 NSCLC, above 100 µM; with IGROV1 ovarian, above 100 µM; in the assay with KM12 colon it was above 100 µM; in the assay with NCI-H226 lung, 76.8 µM. Besides, the TGI in the assay with OVCAR-4 ovarian was above 100 µM; with SNB-19 CNS, above 100 µM; in the assay with UACC-257 melanoma, 68.7 µM; with UACC-62 melanoma, above 100 µM.

As to `Cc1ccc(-c2nc3nc(-c4ccccc4)nc(N4CCCNCC4)c3o2)cc1`, the GI50 in the assay on COLO 205 colon was 1.96 µM; in the assay with EKVX NSCLC, 1.75 µM; in the assay on HOP-62 NSCLC, 1.81 µM; with IGROV1 ovarian, 1.74 µM; in the assay on KM12 colon it was 1.77 µM; in the assay on NCI-H226 lung, 1.87 µM. The GI50 with OVCAR-4 ovarian was 1.59 µM; in the assay on SNB-19 CNS, 1.63 µM; with UACC-257 melanoma, 1.72 µM; with UACC-62 melanoma, 1.68 µM. Also, the TGI was determined as 3.66 µM in the assay on COLO 205 colon; 3.29 µM in the assay on EKVX NSCLC; 3.36 µM in the assay on HOP-62 NSCLC; 3.39 µM with IGROV1 ovarian; 3.41 µM with KM12 colon; 3.86 µM in the assay on NCI-H226 lung. Moreover, the TGI came out at 3.09 µM in the assay on OVCAR-4 ovarian, 3.11 µM in the assay with SNB-19 CNS, 3.26 µM in the assay with UACC-257 melanoma and 3.14 µM with UACC-62 melanoma.

As for `O=C(O)C(=Cc1ccc(-c2ccccc2)cc1)C(=O)O`, the TGI in the assay on COLO 205 colon was 25.1 µM; in the assay with EKVX NSCLC, above 100 µM; with HOP-62 NSCLC, 22.5 µM; in the assay with IGROV1 ovarian, above 100 µM; in the assay on KM12 colon it was 40.9 µM; with NCI-H226 lung, 48.4 µM. For the same compound, the TGI is 41.2 µM in the assay on OVCAR-4 ovarian, 37.9 µM in the assay with SNB-19 CNS, 25 µM in the assay with UACC-257 melanoma and 26.1 µM with UACC-62 melanoma.

Take `Nc1cccc(S(=O)(=O)NCC(=O)O)c1`: the TGI with COLO 205 colon, in the assay with EKVX NSCLC, in the assay with HOP-62 NSCLC, in the assay with IGROV1 ovarian, in the assay with KM12 colon and in the assay with NCI-H226 lung was above 100 µM each time. For the same compound, the TGI with OVCAR-4 ovarian, in the assay on SNB-19 CNS, in the assay on UACC-257 melanoma and with UACC-62 melanoma was above 100 µM each time.

Take `CC/C=C\C[C@H](F)C/C=C1/C(=O)C=C[C@@H]1C/C=C\CCCC(=O)O`: the GI50 in the assay with COLO 205 colon is 5.3 µM; in the assay with EKVX NSCLC, 7.59 µM; with HOP-62 NSCLC, 7.65 µM; in the assay with IGROV1 ovarian, 9.97 µM; in the assay on KM12 colon, 4.65 µM; in the assay on NCI-H226 lung it was 8.8 µM. Also, the GI50 is 7.76 µM with OVCAR-4 ovarian, 7.31 µM in the assay with SNB-19 CNS, 5.23 µM with UACC-257 melanoma and 4.29 µM with UACC-62 melanoma. The TGI in the assay on COLO 205 colon was 12.2 µM; in the assay on EKVX NSCLC, 25.1 µM; in the assay on HOP-62 NSCLC, 15.2 µM; in the assay with IGROV1 ovarian, 32.1 µM; in the assay with KM12 colon it was 13.3 µM; in the assay with NCI-H226 lung, 21 µM. Also, the TGI was above 32.5 µM with OVCAR-4 ovarian, 25.4 µM in the assay with SNB-19 CNS, 11.4 µM with UACC-257 melanoma and 11.1 µM in the assay on UACC-62 melanoma.

Turning to `O=C(O)c1nn(-c2ccccc2-c2n[nH]c(=O)[nH]c2=O)c(=O)[nH]c1=O`, the TGI in the assay on COLO 205 colon, in the assay with EKVX NSCLC, in the assay with HOP-62 NSCLC, with IGROV1 ovarian, in the assay with KM12 colon and in the assay on NCI-H226 lung was above 100 µM each time. Besides, the TGI in the assay on OVCAR-4 ovarian, with SNB-19 CNS, with UACC-257 melanoma and in the assay on UACC-62 melanoma was above 100 µM throughout.

`CC(=O)OCC1OC(NC(=S)N/N=C2\CC(c3ccccc3)Oc3ccccc32)C(OC(C)=O)C(OC(C)=O)C1OC(C)=O` (stereo unspecified): the TGI in the assay on COLO 205 colon, in the assay with EKVX NSCLC, with HOP-62 NSCLC, in the assay on IGROV1 ovarian, in the assay on KM12 colon and in the assay on NCI-H226 lung was above 100 µM each time. In addition, the TGI with OVCAR-4 ovarian, in the assay with SNB-19 CNS, in the assay with UACC-257 melanoma and in the assay on UACC-62 melanoma was above 100 µM throughout.

Consider `O=C1C(Cl)=C(NCCN2CCOCC2)C(=O)c2ncccc21`, for which the GI50 in the assay on COLO 205 colon was 1.61 µM; in the assay on HOP-62 NSCLC, 1.77 µM; with IGROV1 ovarian, 1.71 µM; in the assay on KM12 colon, 3.55 µM; with OVCAR-4 ovarian it was 1.85 µM; in the assay on SNB-19 CNS, 1.99 µM. In addition, the GI50 with UACC-257 melanoma was 1.37 µM; in the assay on UACC-62 melanoma it was 1.15 µM. Further, the TGI in the assay on COLO 205 colon is 3.43 µM; in the assay on EKVX NSCLC, 3.41 µM and 3.6 µM; in the assay on HOP-62 NSCLC, 4.46 µM and 3.36 µM; with IGROV1 ovarian it was 3.73 µM and 3.4 µM; in the assay on KM12 colon, 3.1 µM and 16.1 µM; with NCI-H226 lung it was 5.14 µM and 3.74 µM. In addition, the TGI with OVCAR-4 ovarian was 3.88 µM; with SNB-19 CNS, 3.15 µM and 4.01 µM; in the assay with UACC-257 melanoma, 3.13 µM and 2.69 µM; in the assay with UACC-62 melanoma, 3.52 µM and 2.61 µM.

Take `CC1CN1C(=O)NCCCCCCNC(=O)N1CC1C` (stereo unspecified): the TGI with COLO 205 colon, in the assay on EKVX NSCLC, with HOP-62 NSCLC, in the assay with IGROV1 ovarian, in the assay on KM12 colon and with NCI-H226 lung was above 100 µM throughout. Besides, the TGI with OVCAR-4 ovarian, in the assay on SNB-19 CNS, in the assay on UACC-257 melanoma and in the assay with UACC-62 melanoma was above 100 µM each time.

`COc1ccc2c(c1)C(=O)c1c-2n(CCCn2ccnc2)c(=O)c2cc([N+](=O)[O-])ccc12`: the GI50 was 0.0548 µM with COLO 205 colon; 0.0646 µM in the assay with EKVX NSCLC; below 0.01 µM with HOP-62 NSCLC; below 0.01 µM in the assay on IGROV1 ovarian; below 0.0229 µM in the assay on KM12 colon; below 0.01 µM with NCI-H226 lung. For the same compound, the GI50 in the assay on SNB-19 CNS is below 0.01 µM; with UACC-257 melanoma, 0.115 µM; in the assay on UACC-62 melanoma, below 0.01 µM. The TGI with COLO 205 colon was above 42.8 µM; in the assay on EKVX NSCLC, above 50.9 µM; in the assay with HOP-62 NSCLC, 0.0119 µM; in the assay on IGROV1 ovarian, 25.2 µM; in the assay on KM12 colon, 8.69 µM; in the assay on NCI-H226 lung, 0.584 µM. The TGI in the assay with OVCAR-4 ovarian was above 100 µM; in the assay on SNB-19 CNS it was above 100 µM; in the assay with UACC-62 melanoma, 0.075 µM.

Turning to `CC(C)(C)c1cc(CCC(=O)Nc2ccc(Cl)cc2)nc(NC#N)n1`, the TGI with COLO 205 colon, in the assay with EKVX NSCLC, with HOP-62 NSCLC, in the assay on IGROV1 ovarian, in the assay with KM12 colon and with NCI-H226 lung was above 100 µM in each case. Also, the TGI in the assay on OVCAR-4 ovarian, with SNB-19 CNS, in the assay on UACC-257 melanoma and with UACC-62 melanoma was above 100 µM each time.

Consider `Nc1c(-c2ccc(Cl)cc2)[n+]([O-])c2ccccc2[n+]1[O-]`, for which the TGI in the assay with COLO 205 colon, in the assay on EKVX NSCLC, in the assay on HOP-62 NSCLC, with IGROV1 ovarian, in the assay with KM12 colon and in the assay with NCI-H226 lung was above 100 µM in each case. Moreover, the TGI with OVCAR-4 ovarian, in the assay on SNB-19 CNS, in the assay with UACC-257 melanoma and with UACC-62 melanoma was above 100 µM in each case.

`O=C1Nc2ccccc2C1(c1ccc(O)cc1)c1ccc(O)cc1`: the GI50 was 0.125 µM in the assay on COLO 205 colon; 14.5 µM in the assay on EKVX NSCLC; 20.5 µM in the assay with HOP-62 NSCLC; 10.2 µM in the assay on IGROV1 ovarian; 12.1 µM with KM12 colon; 12.8 µM in the assay on NCI-H226 lung. In addition, the GI50 in the assay on OVCAR-4 ovarian was 0.103 µM; in the assay on SNB-19 CNS, 34.3 µM; with UACC-257 melanoma, 25.3 µM; in the assay on UACC-62 melanoma, 19.2 µM. In addition, the TGI was 4.38 µM in the assay with COLO 205 colon; 90 µM with EKVX NSCLC; 53.1 µM in the assay on HOP-62 NSCLC; 39.3 µM with IGROV1 ovarian; 28.4 µM with KM12 colon; 59.7 µM in the assay on NCI-H226 lung. Moreover, the TGI in the assay on OVCAR-4 ovarian is 0.961 µM; in the assay with SNB-19 CNS it was above 97 µM; in the assay with UACC-257 melanoma, 62 µM; with UACC-62 melanoma, 43.8 µM.
